Laboratory results: PMC12503909, “C1′‐Branched Acyclic Nucleoside Phosphonates as Inhibitors of Plasmodium Falciparum 6‐Oxopurine Phosphoribosyltransferase” (Chemmedchem, 2025)

What was measured:
P. falciparum D6 = assay: In vitro antimalarial activity, 3H-hypoxanthine growth inhibition assay, D6 line; format: cell-based, Plasmodium falciparum; conditions: 96 h, Pf infected erythrocytes, D6 strain sensitive to chloroquine, mean ± SD of three independent experiments
Protocol: (§1) The IC50 values were determined as previously described.^[ [32] ^] P. falciparum D6 (Sierra‐Leone) laboratory line, sensitive to most antimalarial drugs, and W2 (Indochina) line, resistant to chloroquine and pyrimethamine, were maintained as previously described^[ [33] ^] in medium consisted of 10.4 g L^−1 RPMI‐1640‐LPLF powder (Gibco BRL), 5.97 g L^−1 HEPES buffer (MP Biomedicals, USA), 2.0 g L^−1 d‐glucose (BDH chemicals, Australia), 0.05 g L^−1 hypoxanthine (Sigma, USA) and 40 mg L^−1 gentamycin (Pfizer, Australia), supplemented with 0.21% NaHCO3 and 10% human plasma prior to use. Red blood cells O (Rh+) type were obtained from the Australian Red Cross Blood Service and added to 4% haematocrit. Cultures were routinely synchronized using D‐sorbitol.^[ [34] ^] To evaluate the antimalarial activity of the ANPs, the ^3H‐hypoxanthine growth inhibition assay was utilized, where the uptake of ^3H‐hypoxanthine by malaria parasites is used as a surrogate marker for parasite growth. For these assays, stock solutions of the tested compounds were made to concentrations of 20–40 mM in DMSO or water and subsequently diluted in hypoxanthine‐free complete media prior to assay. The assays (in 96‐well plate format) were initiated when most parasites (> 90%) were at the early trophozoite (ring) stage. Parasite cultures (100 μL per well) at 0.5% initial parasitemia and 2% hematocrit in hypoxanthine‐free RPMI1640‐LPLF medium were exposed to ten twofold serial dilutions of the compounds and chloroquine (reference drug) for 96 h, with ^3H‐hypoxanthine (0.2 μCi well^−1) added ≈48 h after the beginning of the experiment.
(§2) The ^3H‐hypoxanthine incorporation data were analyzed, and sigmoidal growth inhibition curves were produced by nonlinear regression analysis of the ^3H‐hypoxanthine incorporation data versus log‐transformed concentrations of the compounds using Graphpad Prism V5.0 software (GraphPad Software Inc. USA). […] The IC50 values were based on three independent experiments, with mean ± SD calculated.

P. falciparum W2 = assay: In vitro antimalarial activity, 3H-hypoxanthine growth inhibition assay, W2 line; format: cell-based, Plasmodium falciparum; conditions: 96 h, Pf infected erythrocytes, W2 strain resistant to chloroquine, mean ± SD of three independent experiments
Protocol: as §1, §2

HepG2 = assay: Cytotoxicity of the prodrug in human cells (CellTiter-Glo 2.0), HepG2; format: cell-based; conditions: 10 µM, versus untreated control; mean ± SD
Protocol: (§3) Compound cytotoxicity was evaluated in nontumor human dermal fibroblasts (NHDF), CCRF‐CEM, HL‐60, HeLa, and HepG2 cells. All cell lines were obtained from ATCC (Manassas, VA, USA). The cytotoxicity was assayed using CellTiter‐Glo 2.0 detection reagent (Promega, Madison, USA) according to the manufacturer's protocol. The concentration of prodrug used in this assay was 10 μM. This concentration was chosen as it would more accurately reflect the expected concentration in an in vitro assessment.

CCRF-CEM = assay: Cytotoxicity of the prodrug in human cells (CellTiter-Glo 2.0), CCRF-CEM; format: cell-based; conditions: 10 µM, versus untreated control; mean ± SD
Protocol: as §3

HL-60 = assay: Cytotoxicity of the prodrug in human cells (CellTiter-Glo 2.0), HL-60; format: cell-based; conditions: 10 µM, versus untreated control; mean ± SD
Protocol: as §3

NHDF = assay: Cytotoxicity of the prodrug in human cells (CellTiter-Glo 2.0), NHDF; format: cell-based; conditions: 10 µM, versus untreated control; mean ± SD
Protocol: as §3

HeLa = assay: Cytotoxicity of the prodrug in human cells (CellTiter-Glo 2.0), HeLa; format: cell-based; conditions: 10 µM, versus untreated control; mean ± SD
Protocol: as §3

[1] = Plasmodium falciparum, D6, Erythrocyte
[2] = Plasmodium falciparum, W2, Erythrocyte

Compound | IC50 (P. falciparum D6; [1]) [µM] | IC50 (P. falciparum W2; [2]) [µM] | Viability HepG2 (HepG2) [% control] | Viability CCRF-CEM (CCRF-CEM) [% control] | Viability HL-60 (HL-60) [% control] | Viability NHDF (NHDF) [% control] | Viability HeLa (HeLa) [% control] | IC50 (P. falciparum D6) [µM] | IC50 (P. falciparum W2) [µM]
CCOC(=O)[C@H](Cc1ccccc1)NP(=O)(CCOCC(OCCOCP(=O)(N[C@@H](Cc1ccccc1)C(=O)OCC)N[C@@H](Cc1ccccc1)C(=O)OCC)n1cnc2c(=O)[nH]c(N)nc21)N[C@@H](Cc1ccccc1)C(=O)OCC (mixture of isomers) [19b, Tetra‐(L‐phenylalaninate ethyl ester) prodrug of (2‐(2‐(guanin‐9‐yl)‐2‐(2‐(phosphonatomethoxy)ethoxy)ethoxy)ethyl)phosphonic acid] | 4.3 ± 0.7 | 8.8 ± 2.6 |  |  |  |  |  |  | 
CCOC(=O)[C@H](Cc1ccccc1)NP(=O)(COCC(OCCO)n1cnc2c(=O)[nH]c(N)nc21)N[C@@H](Cc1ccccc1)C(=O)OCC (mixture of isomers) [21b, Bis‐(L‐phenylalaninate ethyl ester) prodrug of ((2‐(guanin‐9‐yl)‐2‐(2‐hydroxyethoxy)ethoxy)methyl)phosphonic acid] | 84 ± 10 | 79 ± 8 | 93 ± 4 | 97 ± 1 | 100 ± 2 | 94 ± 8 | 91 ± 2 |  | 
CCOC(=O)[C@H](Cc1ccccc1)NP(=O)(CCOCC(OCCOCP(=O)(N[C@@H](Cc1ccccc1)C(=O)OCC)N[C@@H](Cc1ccccc1)C(=O)OCC)n1cnc2c(=O)[nH]cnc21)N[C@@H](Cc1ccccc1)C(=O)OCC (stereo partly drawn) [19a, Tetra‐(L‐phenylalaninate ethyl ester) prodrug of (2‐(2‐(hypoxanthin‐9‐yl)‐2‐(2‐(phosphonatomethoxy)ethoxy)ethoxy)ethyl)phosphonic acid] | 2 | 3 | 116 ± 1 | 106 ± 1 | 112 ± 1 | 114 ± 5 | 105 ± 1 | 2.1 ± 0.2 | 3.4 ± 1.1
CCOC(=O)[C@H](Cc1ccccc1)NP(=O)(COCC(OCCO)n1cnc2c(=O)[nH]cnc21)N[C@@H](Cc1ccccc1)C(=O)OCC (stereo partly drawn) [21a, Bis‐(L‐phenylalaninate ethyl ester) prodrug of ((2‐(2‐hydroxyethoxy)‐2‐(hypoxanthin‐9‐yl)ethoxy)methyl)phosphonic acid] | 34 ± 6 | 71 ± 1 | 98 ± 3 | 101 ± 2 | 103 ± 0 | 104 ± 8 | 97 ± 2 |  | 
CCOC(=O)[C@H](Cc1ccccc1)NP(=O)(CCOCC(OCCO)n1cnc2c(=O)[nH]cnc21)N[C@@H](Cc1ccccc1)C(=O)OCC (stereo partly drawn) [21c, Bis‐(L‐phenylalaninate ethyl ester) prodrug of (2‐(2‐(2‐hydroxyethoxy)‐2‐(hypoxanthin‐9‐yl)ethoxy)ethyl) phosphonic acid] | 41 ± 5 | 14 ± 2 | 97 ± 2 | 100 ± 2 | 104 ± 2 | 102 ± 6 | 97 ± 2 |  | 
CCOC(=O)[C@H](Cc1ccccc1)NP(=O)(CCOCC(OCCO)n1cnc2c(=O)[nH]c(N)nc21)N[C@@H](Cc1ccccc1)C(=O)OCC (stereo partly drawn) [21d, Bis‐(L‐phenylalaninate ethyl ester) prodrug of (2‐(2‐(guanin‐9‐yl)‐2‐(2‐hydroxyethoxy)ethoxy)ethyl) phosphonic acid] | 64 ± 6 | 39 ± 5 | 107 ± 2 | 99 ± 4 | 105 ± 1 | 112 ± 1 | 100 ± 2 |  | 
